According to patent US10626144B2, “Peptide derivatives and uses thereof” (Nosopharm, priority 2014, dated 2020):
Square brackets hold non-standard residues; d marks the D form. Peptide text beside a SMILES is read from it. * marks the point of attachment. Phe(3,4-(OMe)2) = COc1ccc(C[C@H](N)C(=O)O)cc1OC; Phe(4-CONH2) = NC(=O)c1ccc(C[C@H](N)C(=O)O)cc1; Pro(cis-4-F) = O=C(O)[C@@H]1C[C@H](F)CN1; Phe(3-Me) = Cc1cccc(C[C@H](N)C(=O)O)c1; Phe(4-F) = N[C@@H](Cc1ccc(F)cc1)C(=O)O; Pro(4R-NH2) = N[C@H]1CN[C@H](C(=O)O)C1; Dab(3S-OH) = NC[C@H](O)[C@H](N)C(=O)O; Phe(2-F) = N[C@@H](Cc1ccccc1F)C(=O)O; Met(O) = CS(=O)CC[C@H](N)C(=O)O; ΔZArg = N=C(N)NCC/C=C(\N)C(=O)O; Lys(Me) = CNCCCC[C@H](N)C(=O)O; dOrn = NCCC[C@@H](N)C(=O)O; hSer = N[C@@H](CCO)C(=O)O; NMeA = CN[C@@H](C)C(=O)O; Orn = NCCC[C@H](N)C(=O)O; Dab = NCC[C@H](N)C(=O)O; NH(CH2)4NH2 = NCCCCN*

How the values were obtained:
Test in all cases: MIC, broth microdilution (CLSI), reference strain
Settings in all cases: CAMHB
[1] = system: Escherichia coli ATCC 25922
[2] = system: Staphylococcus aureus ATCC 13709
[3] = system: Acinetobacter baumannii ATCC 19606
[4] = system: Pseudomonas aeruginosa ATCC 27853

SMILES | Ec: MIC Escherichia coli ATCC 25922 [1] | Sa: MIC Staphylococcus aureus ATCC 13709 [2] | Ab: MIC Acinetobacter baumannii ATCC 19606 [3] | Pa: MIC Pseudomonas aeruginosa ATCC 27853 [4]
C[C@H](NC(=O)[C@H](CCN)NC(=O)[C@@H](N)CCCCN)C(=O)NCC(=O)N[C@H](CCCN)C(=O)N1CCC[C@H]1C(=O)N[C@@H](Cc1cnc[nH]1)C(=O)N[C@@H](CCCCN)C(=O)N/C(=C\CCNC(=N)N)C(=O)N[C@@H](CCCCN)C(=O)NCCCCN [14.2] (H-K[Dab]AG[dOrn]PHK[ΔZArg]K-{NH(CH2)4NH2}) | + (≤32 μg/mL) | ++ (≤8 μg/mL) | − (>32 μg/mL) | − (>32 μg/mL)
N=C(N)NCC/C=C(\NC(=O)[C@H](CCCCN)NC(=O)[C@H](Cc1cnc[nH]1)NC(=O)[C@@H]1CCCN1C(=O)[C@@H](CCCN)NC(=O)CNC(=O)[C@@H](NC(=O)[C@@H](NC(=O)[C@@H](N)CCCCN)[C@@H](O)CN)[C@@H](O)CN)C(=O)N[C@@H](CCCCN)C(N)=O [22.8] (H-K[Dab(3S-OH)][Dab(3S-OH)]G[dOrn]PHK[ΔZArg]K-NH2) | ++ (≤8 μg/mL) | ++ (≤8 μg/mL) | + (≤32 μg/mL) | ++ (≤8 μg/mL)
C[C@H](NC(=O)[C@H](CCN)NC(=O)[C@@H](N)CCCCN)C(=O)NCC(=O)N[C@H](CCCN)C(=O)N1C[C@H](N)C[C@H]1C(=O)N[C@@H](Cc1cnc[nH]1)C(=O)N[C@@H](CCCCN)C(=O)N/C(=C\CCNC(=N)N)C(=O)N[C@@H](CCCCN)C(=O)NCCCCN [14.17] (H-K[Dab]AG[dOrn][Pro(4R-NH2)]HK[ΔZArg]K-{NH(CH2)4NH2}) | − (>32 μg/mL) | ++ (≤8 μg/mL) | − (>32 μg/mL) | − (>32 μg/mL)
Cc1cccc(C[C@H](NC(=O)[C@@H]2CCCN2C(=O)[C@@H](CCCN)NC(=O)CNC(=O)[C@@H](NC(=O)[C@@H](NC(=O)[C@@H](N)CCCCN)[C@@H](O)CN)[C@@H](O)CN)C(=O)N[C@@H](CCCCN)C(=O)N/C(=C\CCNC(=N)N)C(=O)O)c1 [22.37] (H-K[Dab(3S-OH)][Dab(3S-OH)]G[dOrn]P[Phe(3-Me)]K[ΔZArg]-OH) | + (≤32 μg/mL) | ++ (≤8 μg/mL) | − (>32 μg/mL) | − (>32 μg/mL)
C[C@H](NC(=O)/C(=C/CCNC(=N)N)NC(=O)[C@H](CCCCN)NC(=O)[C@H](Cc1cnc[nH]1)NC(=O)[C@@H]1CCCN1C(=O)[C@@H](CCCN)NC(=O)CNC(=O)[C@H](C)NC(=O)[C@H](CCN)NC(=O)[C@@H](N)CCCCN)C(=O)NCCCCN [14.23] (H-K[Dab]AG[dOrn]PHK[ΔZArg]A-{NH(CH2)4NH2}) | − (>32 μg/mL) | + (≤32 μg/mL) | − (>32 μg/mL) | − (>32 μg/mL)
COc1ccc(C[C@H](NC(=O)[C@@H]2CCCN2C(=O)[C@@H](CCCN)NC(=O)CNC(=O)[C@H](CCN)NC(=O)[C@@H](NC(=O)[C@@H](N)CCCCN)[C@@H](O)CN)C(=O)N[C@@H](CCCCN)C(=O)N/C(=C\CCNC(=N)N)C(=O)O)cc1OC [21.5] (H-K[Dab(3S-OH)][Dab]G[dOrn]P[Phe(3,4-(OMe)2)]K[ΔZArg]-OH) | ++ (≤8 μg/mL) | ++ (≤8 μg/mL) | − (>32 μg/mL) | − (>32 μg/mL)

More lines, now with the values ahead:

Ec: MIC Escherichia coli ATCC 25922 [1] | Sa: MIC Staphylococcus aureus ATCC 13709 [2] | Ab: MIC Acinetobacter baumannii ATCC 19606 [3] | Pa: MIC Pseudomonas aeruginosa ATCC 27853 [4] | SMILES
+ (≤32 μg/mL) | ++ (≤8 μg/mL) | − (>32 μg/mL) | − (>32 μg/mL) | C[C@H](NC(=O)[C@@H](NC(=O)[C@@H](N)CCCCN)[C@@H](O)CN)C(=O)NCC(=O)N[C@H](CCCN)C(=O)N1CCC[C@H]1C(=O)N[C@@H](Cc1ccccc1)C(=O)N[C@@H](CCCCN)C(=O)N/C(=C\CCNC(=N)N)C(=O)O [24.134] (H-K[Dab(3S-OH)]AG[dOrn]PFK[ΔZArg]-OH)
+ (≤32 μg/mL) | ++ (≤8 μg/mL) | − (>32 μg/mL) | − (>32 μg/mL) | C[C@H](NC(=O)[C@@H](NC(=O)[C@@H](N)CCCCN)[C@@H](O)CN)C(=O)NCC(=O)N[C@H](CCCN)C(=O)N1CCC[C@H]1C(=O)N[C@@H](Cc1ccc(F)cc1)C(=O)N[C@@H](CCCCN)C(=O)N/C(=C\CCNC(=N)N)C(=O)O [24.102] (H-K[Dab(3S-OH)]AG[dOrn]P[Phe(4-F)]K[ΔZArg]-OH)
+ (≤32 μg/mL) | ++ (≤8 μg/mL) | − (>32 μg/mL) | − (>32 μg/mL) | C[C@H](NC(=O)[C@@H](NC(=O)[C@@H](N)CCCCN)[C@@H](O)CN)C(=O)NCC(=O)N[C@H](CCCN)C(=O)N1C[C@@H](F)C[C@H]1C(=O)N[C@@H](Cc1cnc[nH]1)C(=O)N[C@@H](CCCCN)C(=O)N/C(=C\CCNC(=N)N)C(=O)O [24.144] (H-K[Dab(3S-OH)]AG[dOrn][Pro(cis-4-F)]HK[ΔZArg]-OH)
− (>32 μg/mL) | + (≤32 μg/mL) | − (>32 μg/mL) | − (>32 μg/mL) | C[C@H](NC(=O)[C@@H](NC(=O)[C@@H](N)CCCCN)[C@@H](O)CN)C(=O)NCC(=O)N[C@H](CCCN)C(=O)N1CCC[C@H]1C(=O)N[C@H](C(=O)N[C@@H](CCCCN)C(=O)N/C(=C\CCNC(=N)N)C(=O)O)[C@@H](C)O [24.137] (H-K[Dab(3S-OH)]AG[dOrn]PTK[ΔZArg]-OH)
− (>32 μg/mL) | + (≤32 μg/mL) | − (>32 μg/mL) | − (>32 μg/mL) | COCC[C@H](NC(=O)[C@@H]1CCCN1C(=O)[C@@H](CCCN)NC(=O)CNC(=O)[C@H](C)NC(=O)[C@@H](NC(=O)[C@@H](N)CCCCN)[C@@H](O)CN)C(=O)N[C@@H](CCCCN)C(=O)N/C(=C\CCNC(=N)N)C(=O)O [24.130] (H-K[Dab(3S-OH)]AG[dOrn]P[hSer](Me)K[ΔZArg]-OH)
− (>32 μg/mL) | − (>32 μg/mL) | − (>32 μg/mL) | − (>32 μg/mL) | C[C@H](NC(=O)[C@@H](NC(=O)[C@@H](N)CCCCN)[C@@H](O)CN)C(=O)NCC(=O)N[C@H](CCCN)C(=O)N(C)[C@@H](C)C(=O)N[C@@H](Cc1cnc[nH]1)C(=O)N[C@@H](CCCCN)C(=O)N/C(=C\CCNC(=N)N)C(=O)O [24.146] (H-K[Dab(3S-OH)]AG[dOrn][NMeA]HK[ΔZArg]-OH)
++ (≤8 μg/mL) | ++ (≤8 μg/mL) | − (>32 μg/mL) | − (>32 μg/mL) | N=C(N)NCC/C=C(\NC(=O)[C@H](CCCCN)NC(=O)[C@H](Cc1ccccc1F)NC(=O)[C@@H]1CCCN1C(=O)[C@@H](CCCN)NC(=O)CNC(=O)[C@H](CCCN)NC(=O)[C@@H](NC(=O)[C@@H](N)CCCCN)[C@@H](O)CN)C(=O)O [211.9] (H-K[Dab(3S-OH)][Orn]G[dOrn]P[Phe(2-F)]K[ΔZArg]-OH)
− (>32 μg/mL) | − (>32 μg/mL) | − (>32 μg/mL) | − (>32 μg/mL) | C[C@H](NC(=O)[C@@H](NC(=O)[C@@H](N)CCCCN)[C@@H](O)CN)C(=O)NCC(=O)N[C@H](CCCN)C(=O)N1CCC[C@H]1C(=O)N[C@@H](CC[S+](C)[O-])C(=O)N[C@@H](CCCCN)C(=O)N/C(=C\CCNC(=N)N)C(=O)O (stereo partly drawn) [24.132] (H-K[Dab(3S-OH)]AG[dOrn]P[Met(O)]K[ΔZArg]-OH)
+ (≤32 μg/mL) | ++ (≤8 μg/mL) | − (>32 μg/mL) | − (>32 μg/mL) | C[C@H](NC(=O)[C@@H](NC(=O)[C@@H](N)CCCCN)[C@@H](O)CN)C(=O)NCC(=O)N[C@H](CCCN)C(=O)N1CCC[C@H]1C(=O)N[C@@H](Cc1ccc(C(N)=O)cc1)C(=O)N[C@@H](CCCCN)C(=O)N/C(=C\CCNC(=N)N)C(=O)O [24.101] (H-K[Dab(3S-OH)]AG[dOrn]P[Phe(4-CONH2)]K[ΔZArg]-OH)
++ (≤8 μg/mL) | ++ (≤8 μg/mL) | − (>32 μg/mL) | − (>32 μg/mL) | CNCCCC[C@H](NC(=O)[C@@H](NC(=O)[C@@H](N)CCCCN)[C@@H](O)CN)C(=O)NCC(=O)N[C@H](CCCN)C(=O)N1CCC[C@H]1C(=O)N[C@@H](Cc1cnc[nH]1)C(=O)N[C@@H](CCCCN)C(=O)N/C(=C\CCNC(=N)N)C(N)=O [215.2] (H-K[Dab(3S-OH)][Lys(Me)]G[dOrn]PHK[ΔZArg]-NH2)
